In series [1] the target is T1, Glucose-dependent insulinotropic receptor (Homo sapiens, UniProt Q8TDV5).
T1 sequence (Q8TDV5 whole entry): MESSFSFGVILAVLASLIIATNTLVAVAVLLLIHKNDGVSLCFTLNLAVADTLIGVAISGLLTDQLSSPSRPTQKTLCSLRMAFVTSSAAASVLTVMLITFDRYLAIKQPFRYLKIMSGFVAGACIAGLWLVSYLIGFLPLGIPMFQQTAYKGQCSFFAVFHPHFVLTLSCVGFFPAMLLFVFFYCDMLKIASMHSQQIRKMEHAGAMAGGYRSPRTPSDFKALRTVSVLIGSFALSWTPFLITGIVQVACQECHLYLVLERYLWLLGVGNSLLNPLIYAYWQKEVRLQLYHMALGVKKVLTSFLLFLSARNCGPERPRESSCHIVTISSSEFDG
In words: Agonist activity at human GPR119 expressed in MIN6 cells assessed as intracellular cAMP concentration after 45 mins by Alphascreen analysis. Format: functional, cell-based.

In series [2] the target is T1, Glucose-dependent insulinotropic receptor. Kind of series: Agonist activity at GPR119 expressed in CHO-K1 cells assessed as cAMP level after 1 hr by homogenous time-resolved fluorescence assay. The class given is functional, cell-based. On the technique in general: Cyclic AMP is a second messenger, typically raised through Gs and lowered through Gi signalling.
For series [3], the species on record is Mus musculus. In words: Drug metabolism in mouse assessed as 3-fluoro-4-(5-fluoro-6-(4-(3-(2-fluoropropan-2-yl)-1,2,4-oxadiazol-5-yl)piperidin-1-yl)pyrimidin-4-ylamino)-N-methylbenzamide metabolite by LC/MS/MS analysis. Format: ADME, organism-based. The settings on record: in vivo.
For series [4], the species on record is Canis familiaris. In words: Drug metabolism in dog assessed as 3-fluoro-4-(5-fluoro-6-(4-(3-(2-fluoropropan-2-yl)-l, 2,4-oxadiazol-5-yl)piperidin-l -yl)pyrimidin-4-ylamino)benzoic acid metabolite by LC/MS/MS analysis. The settings on record: in vivo. The class given is ADME, organism-based, Canis lupus familiaris.
The species named for series [5] is Mus musculus. In words: Drug metabolism in mouse assessed as 3-fluoro-4-(5-fluoro-6-(4-(3-(2-fluoropropan-2-yl)-1,2,4-oxadiazol-5-yl)piperidin-1-yl)pyrimidin-4-ylamino)benzamide metabolite by LC/MS/MS analysis. The class given is ADME, organism-based. The settings on record: in vivo.
Series [6] is filed under the species Canis familiaris. In words: Drug metabolism in dog assessed as 3-fluoro-4-(5-fluoro-6-(4-(3-(2-fluoropropan-2-yl)-1,2,4-oxadiazol-5-yl)piperidin-1-yl)pyrimidin-4-ylamino)-N-methylbenzamide metabolite by LC/MS/MS analysis. Format: ADME, organism-based, Canis lupus familiaris. The settings on record: in vivo.
Series [7] deals with Rhesus monkey. Kind of series: Drug metabolism in monkey assessed as 3-fluoro-4-(5-fluoro-6-(4-(3-(2-fluoropropan-2-yl)-1,2,4-oxadiazol-5-yl)piperidin-1-yl)pyrimidin-4-ylamino)benzamide metabolite by LC/MS/MS analysis. Format: ADME, organism-based, Macaca mulatta. To be noted: in vivo.
For series [8], the species on record is Canis familiaris. Kind of series: Drug metabolism in dog assessed as 3-fluoro-4-(5-fluoro-6-(4-(3-(2-fluoropropan-2-yl)-1,2,4-oxadiazol-5-yl)piperidin-1-yl)pyrimidin-4-ylamino)benzamide metabolite by LC/MS/MS analysis. The class given is ADME, organism-based, Canis lupus familiaris. To be noted: in vivo.
For series [9], the species on record is Rattus norvegicus. In words: Drug metabolism in rat assessed as 3-fluoro-4-(5-fluoro-6-(4-(3-(2-fluoropropan-2-yl)-l, 2,4-oxadiazol-5-yl)piperidin-l -yl)pyrimidin-4-ylamino)benzoic acid metabolite by LC/MS/MS analysis. Format: ADME, organism-based. To be noted: in vivo.
Series [10] is filed under the species Mus musculus. In words: Drug metabolism in mouse assessed as 3-fluoro-4-(5-fluoro-6-(4-(3-(2-fluoropropan-2-yl)-l, 2,4-oxadiazol-5-yl)piperidin-l -yl)pyrimidin-4-ylamino)benzoic acid metabolite by LC/MS/MS analysis. To be noted: in vivo. Format: ADME, organism-based.
Series [11] deals with Rhesus monkey. Kind of series: Drug metabolism in monkey assessed as 3-fluoro-4-(5-fluoro-6-(4-(3-(2-fluoropropan-2-yl)-1,2,4-oxadiazol-5-yl)piperidin-1-yl)pyrimidin-4-ylamino)-N-methylbenzamide metabolite by LC/MS/MS analysis. The class given is ADME, organism-based, Macaca mulatta. To be noted: in vivo.
For series [12], the species on record is Rattus norvegicus. Kind of series: Drug metabolism in rat assessed as 3-fluoro-4-(5-fluoro-6-(4-(3-(2-fluoropropan-2-yl)-1,2,4-oxadiazol-5-yl)piperidin-1-yl)pyrimidin-4-ylamino)-N-methylbenzamide metabolite by LC/MS/MS analysis. The class given is ADME, organism-based. To be noted: in vivo.
For series [13], the system named is Rhesus monkey. Kind of series: Drug metabolism in monkey assessed as 3-fluoro-4-(5-fluoro-6-(4-(3-(2-fluoropropan-2-yl)-l, 2,4-oxadiazol-5-yl)piperidin-l -yl)pyrimidin-4-ylamino)benzoic acid metabolite by LC/MS/MS analysis. Format: ADME, organism-based, Macaca mulatta. The settings on record: in vivo.
Series [14] is filed under the species Rattus norvegicus. In words: Drug metabolism in rat assessed as 3-fluoro-4-(5-fluoro-6-(4-(3-(2-fluoropropan-2-yl)-1,2,4-oxadiazol-5-yl)piperidin-1-yl)pyrimidin-4-ylamino)benzamide metabolite by LC/MS/MS analysis. Format: ADME, organism-based. The settings on record: in vivo.

Turning to `CCc1cnc(N2CCC(C3Cc4cc(-c5ccc(C(=O)N6CC(F)(F)C6)cc5)ccc4O3)CC2)nc1` (stereo not given), the EC50 (usually the concentration needed to bring the measured effect to its halfway point) in series [1] was 228 nM.

`CC(C)(F)c1noc(C2CCN(c3ncnc(Nc4ccc(C(=O)O)cc4F)c3F)CC2)n1`: the EC50 in [2] worked out at 100000 nM.

With `CN(C)C(=O)c1ccc(Nc2ncnc(N3CCC(c4nc(C(C)(C)F)no4)CC3)c2F)c(F)c1`, the Drug metabolism entry in the series listed under Mus musculus [3], in the series listed under Canis familiaris [4], in the series filed under Mus musculus [5], in the series filed under Canis familiaris [6], in the series on Rhesus monkey [7] and in the series filed under Canis familiaris [8] was “Active” throughout. Moreover, the Drug metabolism result in the series filed under Rattus norvegicus [9], in the series listed under Mus musculus [10], in the series on Rhesus monkey [11], in the series listed under Rattus norvegicus [12], in the series with Rhesus monkey [13] and in the series listed under Rattus norvegicus [14] was “Active” throughout.

Take `CCc1cnc(N2CCC(C3Cc4cc(C5CCN(S(C)(=O)=O)CC5)ncc4O3)CC2)nc1` (stereo not given): the EC50 in [1] came to 2 nM.

For the origin of these results see ChEMBL document CHEMBL2202963, “GPR119 Modulators for the Treatment of Diabetes, Obesity, and Related Diseases: Patent Highlight” (ACS Med Chem Lett, 2012).
